Data published in PubChem BioAssay AID1745844 (Carcinogenic Potency Database (CPDB), 2022).
Active and inactive are the calls of the source. How the calls were made is not given here.

Test system: rodent lifetime carcinogenesis bioassay, tumor incidence TD50
Assay: carcinogenic potency in animals, long-term in vivo studies, CPDB compilation (AID 1745844)

O=C1c2ccccc2C(=O)N1SC(Cl)(Cl)Cl
carcinogen call (mouse, strain B6AKF1, females, oral dosing, site: any site (literature study), lesion: several types, types named in the paper, dosed 76 weeks, study length 76 weeks): negative (inactive)
carcinogen call (mouse, strain B6AKF1, females, oral dosing, site: liver, lesion: hepatoma, dosed 76 weeks, study length 76 weeks): negative (inactive)
carcinogen call (mouse, strain B6AKF1, females, oral dosing, site: lung, lesion: adenoma, dosed 76 weeks, study length 76 weeks): negative (inactive)
carcinogen call (mouse, strain B6AKF1, males, oral dosing, site: any site (literature study), lesion: several types, types named in the paper, dosed 76 weeks, study length 76 weeks): negative (inactive)
TD50 (mouse, strain B6AKF1, males, oral dosing, site: liver, lesion: hepatoma, dosed 76 weeks, study length 76 weeks): 8230 mg/kg/day (inactive)
carcinogen call (mouse, strain B6AKF1, males, oral dosing, site: lung, lesion: adenoma, dosed 76 weeks, study length 76 weeks): negative (inactive)
TD50 (mouse, strain B6C3F1, females, in feed, site: all sites, lesion: malignant lymphoma, dosed 104 weeks, study length 104 weeks): 2200 mg/kg/day
TD50 (mouse, strain B6C3F1, females, in feed, site: duodenum, lesion: adenocarcinoma, dosed 104 weeks, study length 104 weeks): 2090 mg/kg/day
TD50 (mouse, strain B6C3F1, females, in feed, site: duodenum, lesion: adenoma, dosed 104 weeks, study length 104 weeks): 29200 mg/kg/day
TD50 (mouse, strain B6C3F1, females, in feed, site: duodenum, lesion: several types, types named in the paper, dosed 104 weeks, study length 104 weeks): 1670 mg/kg/day
TD50 (mouse, strain B6C3F1, females, in feed, site: liver, lesion: several types, types named in the paper, dosed 104 weeks, study length 104 weeks): 18900 mg/kg/day
TD50 (mouse, strain B6C3F1, females, in feed, site: stomach, nonglandular, lesion: several types, types named in the paper, dosed 104 weeks, study length 104 weeks): 6000 mg/kg/day
TD50 (mouse, strain B6C3F1, females, in feed, site: stomach, nonglandular, lesion: squamous-cell papilloma, dosed 104 weeks, study length 104 weeks): 5780 mg/kg/day
TD50 (mouse, strain B6C3F1, females, oral dosing, site: any site (literature study), lesion: several types, types named in the paper, dosed 76 weeks, study length 76 weeks): 260 mg/kg/day (inactive)
carcinogen call (mouse, strain B6C3F1, females, oral dosing, site: liver, lesion: hepatoma, dosed 76 weeks, study length 76 weeks): negative (inactive)
carcinogen call (mouse, strain B6C3F1, females, oral dosing, site: lung, lesion: several types, types named in the paper, dosed 76 weeks, study length 76 weeks): negative (inactive)
TD50 (mouse, strain B6C3F1, males, in feed, site: duodenum, lesion: adenocarcinoma, dosed 104 weeks, study length 104 weeks): 981 mg/kg/day
TD50 (mouse, strain B6C3F1, males, in feed, site: duodenum, lesion: adenoma, dosed 104 weeks, study length 104 weeks): 23000 mg/kg/day
TD50 (mouse, strain B6C3F1, males, in feed, site: duodenum, lesion: several types, types named in the paper, dosed 104 weeks, study length 104 weeks): 899 mg/kg/day
TD50 (mouse, strain B6C3F1, males, in feed, site: stomach, nonglandular, lesion: several types, types named in the paper, dosed 104 weeks, study length 104 weeks): 5460 mg/kg/day
TD50 (mouse, strain B6C3F1, males, in feed, site: stomach, nonglandular, lesion: squamous-cell carcinoma, dosed 104 weeks, study length 104 weeks): 13100 mg/kg/day
TD50 (mouse, strain B6C3F1, males, in feed, site: stomach, nonglandular, lesion: squamous-cell papilloma, dosed 104 weeks, study length 104 weeks): 12900 mg/kg/day
TD50 (mouse, strain B6C3F1, males, oral dosing, site: any site (literature study), lesion: several types, types named in the paper, dosed 76 weeks, study length 76 weeks): 87.7 mg/kg/day (inactive)
TD50 (mouse, strain B6C3F1, males, oral dosing, site: liver, lesion: hepatoma, dosed 76 weeks, study length 76 weeks): 242 mg/kg/day (inactive)
TD50 (mouse, strain B6C3F1, males, oral dosing, site: lung, lesion: adenoma, dosed 76 weeks, study length 76 weeks): 156 mg/kg/day (inactive)
TD50 (mouse, strain Charles River CD1, females, in feed, site: digestive tract, lesion: several types, types named in the paper, dosed 112 weeks, study length 112 weeks): 2380 mg/kg/day
TD50 (mouse, strain Charles River CD1, females, in feed, site: duodenum, lesion: adenocarcinoma, dosed 112 weeks, study length 112 weeks): 3310 mg/kg/day
TD50 (mouse, strain Charles River CD1, females, in feed, site: duodenum, lesion: adenoma, dosed 112 weeks, study length 112 weeks): 7280 mg/kg/day
TD50 (mouse, strain Charles River CD1, males, in feed, site: digestive tract, lesion: several types, types named in the paper, dosed 112 weeks, study length 112 weeks): 2190 mg/kg/day
TD50 (mouse, strain Charles River CD1, males, in feed, site: duodenum, lesion: adenocarcinoma, dosed 112 weeks, study length 112 weeks): 2400 mg/kg/day
TD50 (mouse, strain Charles River CD1, males, in feed, site: duodenum, lesion: adenoma, dosed 112 weeks, study length 112 weeks): 10300 mg/kg/day
TD50 (mouse, strain Charles River CD1, males, in feed, site: stomach, nonglandular, lesion: papilloma, dosed 112 weeks, study length 112 weeks): 13400 mg/kg/day
TD50 (rat, strain Charles River CD (Sprague-Dawley), males, in feed, site: testis, lesion: interstitial-cell tumor, dosed 104 weeks, study length 104 weeks): 839 mg/kg/day
TD50 (rat, strain Charles River CD (Sprague-Dawley), males, in feed, site: thyroid gland, lesion: several types, types named in the paper, dosed 104 weeks, study length 104 weeks): 2940 mg/kg/day
TD50 (rat, strain Fischer 344, females, in feed, site: all sites, lesion: malignant lymphoma, dosed 104 weeks, study length 104 weeks): 947 mg/kg/day
TD50 (rat, strain Fischer 344, males, in feed, site: all sites, lesion: malignant lymphoma, dosed 104 weeks, study length 104 weeks): 1070 mg/kg/day

O=C(O)CNCC(=O)O
TD50 (rat, strain MRC, females, in drinking water, site: any site (literature study), lesion: several types, types named in the paper, dosed 84 weeks, study length 104 weeks): 143 mg/kg/day (inactive)
carcinogen call (rat, strain MRC, males, in drinking water, site: any site (literature study), lesion: several types, types named in the paper, dosed 84 weeks, study length 104 weeks): negative (inactive)

CCCCN(CCCC)N=O
TD50 (mouse, strain ICR/Jcl, males, in feed, site: esophagus, lesion: papilloma, dosed 52 weeks, study length 65 weeks): 11.9 mg/kg/day
TD50 (mouse, strain ICR/Jcl, males, in feed, site: forestomach, lesion: several types, types named in the paper, dosed 52 weeks, study length 65 weeks): 0.686 mg/kg/day
TD50 (mouse, strain ICR/Jcl, males, in feed, site: forestomach, lesion: squamous-cell carcinoma, dosed 52 weeks, study length 65 weeks): 1.09 mg/kg/day
TD50 (mouse, strain ICR/Jcl, males, in feed, site: forestomach, lesion: squamous-cell papilloma, dosed 52 weeks, study length 65 weeks): 7.69 mg/kg/day
TD50 (mouse, strain ICR/Jcl, males, in feed, site: liver, lesion: adenoma, dosed 52 weeks, study length 65 weeks): 4.34 mg/kg/day
TD50 (mouse, strain ICR/Jcl, males, in feed, site: liver, lesion: several types, types named in the paper, dosed 52 weeks, study length 65 weeks): 2.65 mg/kg/day
TD50 (mouse, strain ICR/Jcl, males, in feed, site: lung, lesion: adenoma, dosed 52 weeks, study length 65 weeks): 8 mg/kg/day
TD50 (rat, strain Fischer 344, males, by gavage, site: forestomach, lesion: carcinoma, dosed 30 weeks, study length 108 weeks): 0.914 mg/kg/day
TD50 (rat, strain Fischer 344, males, by gavage, site: liver, lesion: hepatocellular carcinoma, dosed 30 weeks, study length 108 weeks): 0.691 mg/kg/day
TD50 (rat, strain Fischer 344, males, by gavage, site: lung, lesion: carcinoma, dosed 30 weeks, study length 108 weeks): 1.16 mg/kg/day
TD50 (rat, strain Fischer 344, males, by gavage, site: urinary bladder, lesion: transitional-cell carcinoma, dosed 30 weeks, study length 108 weeks): 1.47 mg/kg/day

CCCc1c(OCCCCc2nn[nH]n2)ccc(C(C)=O)c1O
TD50 (mouse, strain B6C3F1, females, in feed, site: liver, lesion: hepatocellular adenoma, dosed 104 weeks, study length 104 weeks): 369 mg/kg/day
TD50 (mouse, strain B6C3F1, females, in feed, site: liver, lesion: hepatocellular carcinoma, dosed 104 weeks, study length 104 weeks): 112 mg/kg/day
TD50 (mouse, strain B6C3F1, males, in feed, site: liver, lesion: hepatocellular adenoma, dosed 104 weeks, study length 104 weeks): 2740 mg/kg/day
TD50 (mouse, strain B6C3F1, males, in feed, site: liver, lesion: hepatocellular carcinoma, dosed 104 weeks, study length 104 weeks): 426 mg/kg/day

ClCc1ccccn1
TD50 (mouse, strain B6C3F1, females, by gavage, site: any site (literature study), lesion: several types, types named in the paper, dosed 99 weeks, study length 104 weeks): 9790 mg/kg/day (inactive)
TD50 (mouse, strain B6C3F1, females, by gavage, site: lung, lesion: alveolar/bronchiolar adenoma + alveolar/bronchiolar carcinoma, dosed 99 weeks, study length 104 weeks): 2170 mg/kg/day
carcinogen call (mouse, strain B6C3F1, males, by gavage, site: any site (literature study), lesion: several types, types named in the paper, dosed 99 weeks, study length 104 weeks): negative (inactive)
TD50 (mouse, strain B6C3F1, males, by gavage, site: lung, lesion: alveolar/bronchiolar adenoma + alveolar/bronchiolar carcinoma, dosed 99 weeks, study length 104 weeks): 2940 mg/kg/day
TD50 (rat, strain Fischer 344, females, by gavage, site: any site (literature study), lesion: several types, types named in the paper, dosed 99 weeks, study length 105 weeks): 114 mg/kg/day (inactive)
TD50 (rat, strain Fischer 344, males, by gavage, site: any site (literature study), lesion: several types, types named in the paper, dosed 99 weeks, study length 105 weeks): 671 mg/kg/day
TD50 (rat, strain Fischer 344, males, by gavage, site: subcutaneous tissue, lesion: fibroma, dosed 99 weeks, study length 105 weeks): 515 mg/kg/day (inactive)

CC(=O)Nc1ccc(OCC(O)CNC(C)C)cc1 (stereo not drawn)
carcinogen call (mouse, strain AP Alderly Park, females, several routes, site: liver, lesion: one or several types, types not named, dosed 78 weeks, study length 78 weeks): negative (inactive)
carcinogen call (mouse, strain AP Alderly Park, females, several routes, site: lung, lesion: one or several types, types not named, dosed 78 weeks, study length 78 weeks): negative (inactive)
TD50 (mouse, strain AP Alderly Park, males, several routes, site: liver, lesion: one or several types, types not named, dosed 78 weeks, study length 78 weeks): 24300 mg/kg/day (inactive)
TD50 (mouse, strain AP Alderly Park, males, several routes, site: lung, lesion: one or several types, types not named, dosed 78 weeks, study length 78 weeks): 383 mg/kg/day (inactive)
carcinogen call (rat, strain Alpk:APfSD, females, in feed, site: liver, lesion: one or several types, types not named, dosed 104 weeks, study length 104 weeks): negative (inactive)
carcinogen call (rat, strain Alpk:APfSD, males, in feed, site: liver, lesion: one or several types, types not named, dosed 104 weeks, study length 104 weeks): negative (inactive)
TD50 (rat, strain Alpk:APfSD, males, in feed, site: pituitary gland, lesion: one or several types, types not named, dosed 104 weeks, study length 104 weeks): 23.9 mg/kg/day (inactive)
TD50 (rat, strain Alpk:APfSD, males, in feed, site: testis, lesion: one or several types, types not named, dosed 104 weeks, study length 104 weeks): 194 mg/kg/day (inactive)

CC1(C)COC1=O
TD50 (mouse, strain B6C3F1, females, by gavage, site: any site (literature study), lesion: several types, types named in the paper, dosed 102 weeks, study length 103 weeks): 179 mg/kg/day (inactive)
TD50 (mouse, strain B6C3F1, females, by gavage, site: lung, lesion: alveolar/bronchiolar adenoma + alveolar/bronchiolar carcinoma, dosed 102 weeks, study length 103 weeks): 482 mg/kg/day
carcinogen call (mouse, strain B6C3F1, males, by gavage, site: any site (literature study), lesion: several types, types named in the paper, dosed 102 weeks, study length 103 weeks): negative (inactive)
TD50 (mouse, strain B6C3F1, males, by gavage, site: lung, lesion: alveolar/bronchiolar adenoma + alveolar/bronchiolar carcinoma, dosed 102 weeks, study length 103 weeks): 435 mg/kg/day
TD50 (rat, strain Fischer 344, females, by gavage, site: any site (literature study), lesion: several types, types named in the paper, dosed 103 weeks, study length 105 weeks): 200 mg/kg/day
TD50 (rat, strain Fischer 344, females, by gavage, site: stomach, lesion: squamous-cell carcinoma + squamous-cell papilloma, dosed 103 weeks, study length 105 weeks): 333 mg/kg/day
TD50 (rat, strain Fischer 344, males, by gavage, site: any site (literature study), lesion: several types, types named in the paper, dosed 103 weeks, study length 105 weeks): 181 mg/kg/day
TD50 (rat, strain Fischer 344, males, by gavage, site: liver, lesion: hepatocellular adenoma + hepatocellular carcinoma + neoplastic nodule, dosed 103 weeks, study length 105 weeks): 850 mg/kg/day
TD50 (rat, strain Fischer 344, males, by gavage, site: stomach, lesion: squamous-cell carcinoma + squamous-cell papilloma, dosed 103 weeks, study length 105 weeks): 154 mg/kg/day
TD50 (rat, strain Fischer 344, males, by gavage, site: stomach, lesion: squamous-cell carcinoma, dosed 103 weeks, study length 105 weeks): 532 mg/kg/day
